The test system of test [1] is ATR-driven phosphorylation of Chk1 kinase at Serine 345 in HT-29 colorectal adenocarcinoma cells. The test is described as follows: pCHK1 cellular assay (CHK1 p-Ser345 AlphaScreen SureFire). Type of test: cell-based. The note with it: 4-nitroquinoline N-oxide 12 uM, read-out: Cell IC50 (pCHK1 IC50 values). Here is the method:
Inhibitors of ATR kinase are effective at inhibiting the ATR-driven phosphorylation of the downstream target Chk1 kinase at Serine 345, following the addition of 4-nitroquinoline N-oxide, a chemical used to induce DNA damage. Cellular IC50 for the inhibitors of ATR described herein were measured in HT-29 colorectal adenocarcinoma cells. HT-29 cells were routinely maintained in McCoy's 5A media (ATCC Catalog #30-2007) supplemented with 10% fetal bovine serum (Sigma Catalog #F2442) and 1× Penicillin-Streptomycin (Gibco Catalog #15140-122) using a humidified incubator (37° C., 5% CO2, and ambient O2).
In preparation for the CHK1 (p-Ser345) ALPHASCREEN® SUREFIRE® assay, cells were harvested and resuspended in McCoy's 5A media supplemented with 10% fetal bovine serum and 1× Penicillin-Streptomycin. Cells were seeded onto a 384-well black CELLSTAR® Tissue Culture Plate (VWR Catalog #89085-314) at a density of 13,000 cells/well in a volume of 40 uL. The microplate was incubated overnight (approximately 20 hours) at 37° C. with 5% CO2 and ambient O2. Stock solutions of the test compounds were prepared in 100% DMSO (Sigma, Catalog #D2650) and serially diluted 1:3 using 100% DMSO. Compounds were additionally diluted 1:33 in culture medium, and 10 ul/well were transferred to the tissue culture plate. Following the compound addition the microplate was incubated at 37° C. for 90 minutes. 10 uL of 4-nitroquinoline N-oxide (Sigma Aldrich Catalog #N8141-1G) diluted in media (final concentration 12 uM) were added to the tissue culture plate followed by a 120 minute incubation at 37° C. The cells were then washed with PBS and lysed using 10 uL/well SUREFIRE® Kit lysis buffer diluted to 1× in water (PerkinElmer Catalog #TGRCHK1S50K), with mixing on an orbital shaker at 500 rpm for 20 min at RT. Lysates were frozen at −20° C. overnight.
4 uL/well of lysate was then transferred from the tissue culture plate to a 384-well, white, low volume, PROXIPLATE™ (PerkinElmer Catalog #600828). 5 uL/well of the acceptor bead solution, prepared by diluting SUREFIRE® Kit activation buffer (PerkinElmer Catalog #TGRCHK1S50K) and ALPHASCREEN® Protein A acceptor beads (PerkinElmer Catalog #6760617R) in SUREFIRE® Kit reaction buffer (PerkinElmer Catalog #TGRCHK1S50K), were added to the lysates under subdued light and incubated at room temperature for 120 min. 2 uL/well of the donor bead solution, prepared by diluting ALPHASCREEN® Streptavidin donor beads (PerkinElmer Catalog #6760617R) in SUREFIRE® Kit dilution buffer (PerkinElmer Catalog #TGRCHK1S50K), were added under subdued light and incubated at room temperature for an addition 120 minutes. The pCHK1 ALPHASCREEN® signal was measured using an ENVISION® plate reader (PerkinElmer). IC50 values were calculated using a four-parameter logistic curve fit using Genedata Screener software. Percent of control for each compound concentration was calculated by the following formula: 100*(Compound−Min)/(Max−Min) where “Max” is the high control, DMSO, and “Min” is the low control, 5 uM ATR inhibitor.
A general note: In Alpha technology, singlet oxygen from a donor bead excites a nearby acceptor bead.

The next test deals with ATR/ATRIP complex (Homo sapiens (Human), UniProt Q13535). The test is described as follows: ATR/ATRIP enzymatic assay (Caliper-based). Type of test: biochemical. The note with it: FAM-labeled RAD17 peptide, ATP. The method, then:
Human full-length FLAG-TEV-ATR and His6-ATRIP were co-expressed in HEK293 cells. The cell pellet (20 g) was harvested and lysed in 100 mL of lysis buffer (20 mM Tris-HCl pH 7.5 at room temperature, 137 mM NaCl, 10% glycerol, 1 mM DTT, 1% (v/v) Tween-20, 0.1% (v/v) NP-40, complete protease inhibitor cocktail tablets, phosphatase inhibitor cocktail tablets, 2 mM MgCl2, 0.2 mM EDTA, and 1 mM ATP). After sonication and centrifugation, the supernatant was incubated at 4° C. for 3 hours with 1 mL of anti-FLAG resin (Sigma catalog #A2220) that had been pre-equilibrated in buffer A (20 mM Tris-HCl pH 7.5 at room temperature, 137 mM NaCl, 10% glycerol, 1 mM DTT, 2 mM MgCl2, and 0.2 mM EDTA). The sample was loaded into a column, and then washed with buffer A three times. Protein was subsequently eluted with 2 ml of buffer B (buffer A+200 μg/ml 3×FLAG peptide).
The ability of new chemical matter to inhibit the ATR catalytic activity in this ATR/ATRIP complex was assessed using a Caliper-based assay. A 2x enzyme solution (i.e., 4 nM enzyme) was prepared using 1× Kinase Reaction Buffer (25 mM HEPES pH 8, 0.0055% Brij-35, 10 mM MnCl2, and 1 mM DTT). A 2x peptide solution was then prepared consisting of 10 uM FAM-labeled RAD17 peptide (GL Biochem, catalog #524315) in 1× Kinase Reaction Buffer supplemented with 2 μM ATP. 10 μL of the 2× enzyme solution was transferred to an assay plate containing 60 nL of test compound (from a 3× serial dilution) in 100% DMSO. Following a 30 minute incubation at 28° C., 10 μL of the 2× peptide solution was then transferred to the same assay plate. The reaction was allowed to incubate at 28° C. for 6 hours. After adding […] of stop buffer (100 mM HEPES pH 7.5, 0.015% Brij-35, 0.2% Coating-3 Reagent (PerkinElmer, catalog #PN760050), and 50 mM EDTA), data were collected on a Caliper instrument. Conversion values were converted to inhibition values via the following equation: % inhibition=(max−conversion)/(max−min)*100, whereby “max” corresponds to the DMSO control and “min” corresponds to the low control. IC50 values were calculated using the following equation in XLFit: Y=Bottom+(Top−Bottom)/1+(IC50/X)^HillSlope).

[2] abbreviates: Homo sapiens, HT-29, HT-29 cells.
The mark [3] stands for this setting: read-out: ATR/ATRIP Enzyme IC50.
The mark [4] stands for this setting: estimated range, read-out: ATR/ATRIP Enzyme IC50 (estimated class).

In patent publication US10421765B2, “Tetrahydropyrido[4,3-d]pyrimidine inhibitors of ATR kinase” (Board of Regents, The University of Texas System, priority 2017, dated 2019) one finds IC50 data, which are given here for 16 compounds.

Molecules are shown by their SMILES. pIC50: −log10 of the molar value. Read-outs that look alike come from different tables or passages of the source.

Sequence of ATR/ATRIP complex (Q13535 whole entry): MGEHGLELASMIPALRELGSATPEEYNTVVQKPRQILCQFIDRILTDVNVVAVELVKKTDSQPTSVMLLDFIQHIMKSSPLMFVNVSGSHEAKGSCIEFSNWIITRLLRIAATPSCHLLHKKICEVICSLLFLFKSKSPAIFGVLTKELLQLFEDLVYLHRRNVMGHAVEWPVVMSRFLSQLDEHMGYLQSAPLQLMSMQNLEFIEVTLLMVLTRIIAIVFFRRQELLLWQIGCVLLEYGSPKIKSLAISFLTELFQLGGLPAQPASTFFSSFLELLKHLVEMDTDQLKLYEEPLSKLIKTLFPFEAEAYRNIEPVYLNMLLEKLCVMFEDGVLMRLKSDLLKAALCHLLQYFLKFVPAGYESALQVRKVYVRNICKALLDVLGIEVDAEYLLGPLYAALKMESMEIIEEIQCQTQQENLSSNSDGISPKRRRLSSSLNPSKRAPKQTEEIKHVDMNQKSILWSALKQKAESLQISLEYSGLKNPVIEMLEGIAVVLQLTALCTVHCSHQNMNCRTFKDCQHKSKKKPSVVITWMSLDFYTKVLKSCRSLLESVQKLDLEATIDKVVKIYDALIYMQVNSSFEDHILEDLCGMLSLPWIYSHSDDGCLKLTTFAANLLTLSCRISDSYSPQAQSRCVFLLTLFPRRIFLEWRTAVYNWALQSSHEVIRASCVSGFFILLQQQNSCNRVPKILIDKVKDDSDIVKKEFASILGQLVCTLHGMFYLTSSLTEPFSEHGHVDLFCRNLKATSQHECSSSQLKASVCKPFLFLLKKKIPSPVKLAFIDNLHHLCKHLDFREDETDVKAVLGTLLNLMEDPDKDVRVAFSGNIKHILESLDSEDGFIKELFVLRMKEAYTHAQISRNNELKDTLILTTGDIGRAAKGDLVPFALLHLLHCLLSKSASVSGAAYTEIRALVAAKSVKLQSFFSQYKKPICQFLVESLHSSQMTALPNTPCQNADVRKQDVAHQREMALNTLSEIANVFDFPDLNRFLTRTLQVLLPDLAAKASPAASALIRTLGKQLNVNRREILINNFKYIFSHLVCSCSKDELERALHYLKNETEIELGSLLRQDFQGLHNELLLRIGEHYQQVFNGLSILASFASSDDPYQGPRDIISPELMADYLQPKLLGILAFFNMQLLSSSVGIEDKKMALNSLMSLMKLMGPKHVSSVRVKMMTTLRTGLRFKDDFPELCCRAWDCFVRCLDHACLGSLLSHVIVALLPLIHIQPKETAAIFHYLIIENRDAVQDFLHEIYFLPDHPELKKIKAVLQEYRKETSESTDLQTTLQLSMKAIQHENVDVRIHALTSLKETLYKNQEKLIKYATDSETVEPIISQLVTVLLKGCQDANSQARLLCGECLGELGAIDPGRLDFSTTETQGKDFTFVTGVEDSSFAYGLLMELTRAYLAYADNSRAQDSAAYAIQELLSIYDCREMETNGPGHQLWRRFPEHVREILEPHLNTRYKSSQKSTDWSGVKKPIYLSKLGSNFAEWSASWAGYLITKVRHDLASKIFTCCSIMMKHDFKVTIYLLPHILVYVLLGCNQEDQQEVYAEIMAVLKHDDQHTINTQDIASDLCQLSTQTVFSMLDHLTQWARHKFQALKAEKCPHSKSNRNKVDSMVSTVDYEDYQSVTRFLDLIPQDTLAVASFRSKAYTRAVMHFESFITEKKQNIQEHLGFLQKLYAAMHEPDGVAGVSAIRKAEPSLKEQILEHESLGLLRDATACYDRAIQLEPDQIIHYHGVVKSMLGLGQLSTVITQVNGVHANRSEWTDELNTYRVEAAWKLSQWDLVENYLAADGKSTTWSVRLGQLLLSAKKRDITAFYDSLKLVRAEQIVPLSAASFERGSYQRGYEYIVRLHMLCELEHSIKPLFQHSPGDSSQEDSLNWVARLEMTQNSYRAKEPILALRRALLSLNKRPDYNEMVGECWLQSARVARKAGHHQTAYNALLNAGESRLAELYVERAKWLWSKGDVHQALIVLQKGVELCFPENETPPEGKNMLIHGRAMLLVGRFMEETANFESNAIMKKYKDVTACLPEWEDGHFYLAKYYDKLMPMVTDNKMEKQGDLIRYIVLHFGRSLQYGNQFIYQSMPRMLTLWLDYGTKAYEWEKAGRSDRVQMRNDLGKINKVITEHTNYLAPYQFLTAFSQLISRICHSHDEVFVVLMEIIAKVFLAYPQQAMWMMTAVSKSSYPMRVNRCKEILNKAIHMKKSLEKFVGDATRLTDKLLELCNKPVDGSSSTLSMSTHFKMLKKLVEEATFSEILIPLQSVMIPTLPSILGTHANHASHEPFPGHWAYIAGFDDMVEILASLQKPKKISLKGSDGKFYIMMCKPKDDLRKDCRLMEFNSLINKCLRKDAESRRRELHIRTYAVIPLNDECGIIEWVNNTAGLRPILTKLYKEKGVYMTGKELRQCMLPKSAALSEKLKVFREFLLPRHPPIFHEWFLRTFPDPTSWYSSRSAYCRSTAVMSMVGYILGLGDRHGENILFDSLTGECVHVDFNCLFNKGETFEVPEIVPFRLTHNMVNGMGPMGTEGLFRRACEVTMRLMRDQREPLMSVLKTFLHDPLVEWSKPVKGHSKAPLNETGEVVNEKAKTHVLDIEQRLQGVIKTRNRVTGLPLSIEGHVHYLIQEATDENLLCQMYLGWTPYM
Sequence of ATR/ATRIP complex (Q8WXE1 whole entry partner): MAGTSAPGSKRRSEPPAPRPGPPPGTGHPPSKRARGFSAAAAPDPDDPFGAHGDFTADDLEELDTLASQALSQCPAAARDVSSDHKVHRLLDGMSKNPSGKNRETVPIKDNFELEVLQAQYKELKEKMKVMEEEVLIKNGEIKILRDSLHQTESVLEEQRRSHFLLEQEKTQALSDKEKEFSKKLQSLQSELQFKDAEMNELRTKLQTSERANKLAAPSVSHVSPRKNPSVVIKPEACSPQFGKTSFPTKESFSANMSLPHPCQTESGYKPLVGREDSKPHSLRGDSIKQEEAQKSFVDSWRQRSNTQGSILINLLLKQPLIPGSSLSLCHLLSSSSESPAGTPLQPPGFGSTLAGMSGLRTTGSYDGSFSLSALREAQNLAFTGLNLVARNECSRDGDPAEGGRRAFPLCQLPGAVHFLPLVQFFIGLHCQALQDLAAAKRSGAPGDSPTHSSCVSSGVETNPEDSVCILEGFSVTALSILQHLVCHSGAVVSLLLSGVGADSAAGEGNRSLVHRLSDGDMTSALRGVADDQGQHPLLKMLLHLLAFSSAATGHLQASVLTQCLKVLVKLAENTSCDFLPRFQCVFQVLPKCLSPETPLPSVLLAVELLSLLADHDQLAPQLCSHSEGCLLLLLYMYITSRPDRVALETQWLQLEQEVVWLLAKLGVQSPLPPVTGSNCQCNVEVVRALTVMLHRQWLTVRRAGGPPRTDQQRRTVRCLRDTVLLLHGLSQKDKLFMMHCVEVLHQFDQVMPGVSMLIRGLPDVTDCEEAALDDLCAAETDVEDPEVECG

`Cc1cc(N2Cc3c(ncnc3C3CCN(S(C)(=O)=O)CC3)C[C@H]2C)c2cc[nH]c2n1` [Example 56, (R)-7-methyl-6-(6-methyl-1H-pyrrolo[2,3-b]pyridin-4-yl)-4-(1-(methylsulfonyl)piperidin-4-yl)-5,6,7,8-tetrahydropyrido[4,3-d]pyrimidine]: the pIC50 in test [1] (setting [2]) is 7.28; at ATR/ATRIP complex (setting [3]), 6.11.
As for `COC(=O)NC1[C@@H]2CC[C@H]1CN(c1ncnc3c1CN(c1cc(Cl)nc4[nH]ccc14)[C@H](C)C3)C2` (stereo partly drawn) [Example 28, methyl N-{3-[(7R)-6-{6-chloro-1H-pyrrolo[2,3-b]-pyridin-4-yl}-7-methyl-5H,6H,7H,8H-pyrido[4,3-d]pyrimidin-4-yl]-3-aza-bicyclo[3.2.1]octan-8-yl}carbamate], the pIC50 in test [1] (setting [2]) was 7.34; at ATR/ATRIP complex (setting [4]), 5.00 to 6.00.
For `C[C@@H]1Cc2ncnc(N3CCS(=O)(=O)CC3)c2CN1c1cc(Cl)nc2[nH]ccc12` [Example 22, 4-[(7R)-6-{6-chloro-1H-pyrrolo[2,3-b]pyridin-4-yl}-7-methyl-5H,6H,7H,8H-pyrido[4,3-d]pyrimidin-4-yl]-1λ^6-thiomorpholine-1,1-dione] the same measures were 6.26 and 5.00 to 6.00.
Turning to `C[C@@H]1Cc2ncnc([C@H]3CCCN(S(C)(=O)=O)C3)c2CN1c1cc(Cl)nc2[nH]ccc12` (single isomer, unassigned) [Example 51b], the pIC50 in test [1] (HT-29 cells) is 7.32.
On to `CS(=O)(=O)c1ccc(-c2ncnc3c2CN(c2ccnc4[nH]ccc24)CC3)cc1` [Example 1, 4-(4-(Methylsulfonyl)phenyl)-6-(1H-pyrrolo[2,3-b]pyridin-4-yl)-5,6,7,8-tetrahydropyrido[4,3-d]pyrimidine bis(trifluoroacetate)], for which the pIC50 was 5.73 in test [1] (setting [2]) and 5.00 to 6.00 on ATR/ATRIP complex (setting [4]).
Regarding `C[C@@H]1Cc2ncnc(N3C[C@H]4CC[C@@H](C3)C4NS(C)(=O)=O)c2CN1c1cc(Cl)nc2[nH]ccc12` (stereo partly drawn) [Example 13, N-((1R,5S)-3-((R)-6-(6-Chloro-1H-pyrrolo[2,3-b]pyridin-4-yl)-7-methyl-5,6,7,8-tetrahydropyrido[4,3-d]pyrimidin-4-yl)-3-azabicyclo[3.2.]octan-8-yl)methanesulfonamide], the pIC50 in test [1] (setting [2]) was 7.54; on ATR/ATRIP complex (setting [3]), 6.94.
Consider `C[C@@H]1Cc2ncnc(N3CCCC(S(C)(=O)=O)C3)c2CN1c1ccnc2[nH]ccc12` (stereo partly drawn) [Example 18, 3-methanesulfonyl-1-[(7R)-7-methyl-6-{1H-pyrrolo[2,3-b]pyridin-4-yl}-5H,6H,7H,8H-pyrido[4,3-d]pyrimidin-4-yl]piperidine], for which the pIC50 was 6.88 in test [1] (setting [2]) and 6.38 on ATR/ATRIP complex (setting [3]).
`COC(=O)[C@H]1CCCN(c2ncnc3c2CN(c2cc(Cl)nc4[nH]ccc24)[C@H](C)C3)C1` [Example 63, Methyl (S)-1-((R)-6-(6-chloro-1H-pyrrolo[2,3-b]pyridin-4-yl)-7-methyl-5,6,7,8-tetrahydropyrido-[4,3-d]pyrimidin-4-yl)-piperidine-3-carboxylate]: the pIC50 in test [1] (setting [2]) is 7.24; on ATR/ATRIP complex (setting [3]) it was 7.07.
Taken in the same sequence, the figures for `CNC(=O)C1CN(c2ncnc3c2CN(c2cc(Cl)nc4[nH]ccc24)[C@H](C)C3)C1` [Example 34, 1-[(7R)-6-{6-chloro-1H-pyrrolo[2,3-b]pyridin-4-yl}-7-methyl-5H,6H,7H,8H-pyrido[4,3-d]pyrimidin-4-yl]-N-methylazetidine-3-carboxamide] were 7.06 and 6.37.
On to `CC1Cc2ncnc(C3CCN(S(C)(=O)=O)CC3)c2CN1c1ccnc2[nH]ccc12` (stereo not shown) [Example 4, 7-Methyl-4-(1-(methylsulfonyl)piperidin-4-yl)-6-(1H-pyrrolo[2,3-b]pyridin-4-yl)-5,6,7,8-tetrahydropyrido[4,3-d]pyrimidine bis(trifluoroacetate)], for which the pIC50 in test [1] (setting [2]) is 6.80; on ATR/ATRIP complex (setting [3]) it was 6.08.
On to `C[C@@H]1Cc2ncnc([C@@H]3CCCN(S(C)(=O)=O)C3)c2CN1c1cc(Cl)nc2[nH]ccc12` (single isomer, unassigned) [Example 51a], for which the pIC50 in test [1] (HT-29 cells) was 7.96.
Take `C[C@@H]1Cc2ncnc(C3CCN(S(C)(=O)=O)CC3)c2CN1c1ncnc2[nH]ccc12` [Example 43, (R)-7-methyl-4-(1-(methylsulfonyl)piperidin-4-yl)-6-(7H-pyrrolo[2,3-d]pyrimidin-4-yl)-5,6,7,8-tetrahydropyrido[4,3-d] pyrimidine]: on ATR/ATRIP complex (setting [4]), the pIC50 was 5.00 to 6.00.
`C[C@@H]1Cc2ncnc(N3C[C@H]4CC[C@@H](C3)[C@H]4NS(C)(=O)=O)c2CN1c1cc(Cl)nc2[nH]ccc12` [Example 39, N-((1R,5S)-(8-syn)-3-((R)-6-(6-chloro-1H-pyrrolo[2,3-b]pyridin-4-yl)-7-methyl-5,6,7,8-tetrahydropyrido[4,3-d]pyrimidin-4-yl)-3-azabicyclo[3.2.1]octan-8-yl)methanesulfonamide]: in test [1] (setting [2]), the pIC50 was 7.57.
`C[C@@H]1Cc2ncnc(N3CC(NS(C)(=O)=O)C3)c2CN1c1cc(Cl)nc2[nH]ccc12` [Example 35, N-{1-[(7R)-6-{6-chloro-1H-pyrrolo[2,3-b]pyridin-4-yl}-7-methyl-5H,6H,7H,8H-pyrido[4,3-d]pyrimidin-4-yl]azetidin-3-yl}methanesulfonamide]: the pIC50 in test [1] (setting [2]) is 7.47.
Still for that read-out and setting: in the case of `C[C@@H]1Cc2ncnc(N3CC(S(C)(=O)=O)C3)c2CN1c1ccnc2[nH]ccc12` [Example 36, 3-methanesulfonyl-1-[(7R)-7-methyl-6-{1H-pyrrolo[2,3-b]pyridin-4-yl}-5H,6H,7H,8H-pyrido[4,3-d]pyrimidin-4-yl]azetidine] it was 6.89.
As for `C[C@@H]1Cc2ncnc(N3CCC(S(C)(=O)=O)CC3)c2CN1c1ccnc2[nH]ccc12` [Example 88, (R)-7-methyl-4-(4-(methylsulfonyl)-piperidin-1-yl)-6-(1H-pyrrolo[2,3-b]pyridin-4-yl)-5,6,7,8-tetrahydro-pyrido[4,3-d]pyrimidine], at ATR/ATRIP complex (setting [3]), the pIC50 is 6.21.
